{"source": "PubChem BioAssay AID1918931", "about": "(Molecular Pharmacology Branch, DTP, NCI, 2023);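 note: spheroids exposed to agents for 7 days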;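 for viability, T/C: 100% = DMSO vehicle control viability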", "tested_on": "138582-337-R-J1-PDC complex spheroid viability", "assay": "Anticancer human tumor 138582-337-R-J1-PDC patient-derived Merkel cell tumor cell line growth inhibition", "details": "for IC50: curve of first compound; for viability, T/C: stronger effect = lower value", "procedure,_shortened": "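Multicellular complex spheroids of tumor cells with human endothelial cells (HUVEC) and mesenchymal stem cells; the LSD1 inhibitor iadademstat was combined with standard-of-care or investigational agents. Top concentration at or near clinical Cmax, half-log dilutions; final DMSO ≤0.25%.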"}
{"smiles": "CCc1c2c(nc3ccc(O)cc13)-c1cc3c(c(=O)n1C2)COC(=O)[C@]3(O)CC", "note": "+ NC1CCC(NC2CC2c2ccccc2)CC1", "values": [{"measurement": "IC50", "setting": "second compound 0.1 µM", "result": 0.012, "unit": "µM"}, {"measurement": "IC50", "setting": "second compound 0.316 µM", "result": 0.0115, "unit": "µM"}, {"measurement": "IC50", "setting": "second compound 1 µM", "result": 0.0101, "unit": "µM"}, {"measurement": "IC50", "setting": "second compound 3.16 µM", "result": 0.0121, "unit": "µM"}, {"measurement": "IC50", "setting": "second compound 10 µM", "result": 0.0106, "unit": "µM"}, {"measurement": "viability, T/C", "setting": "second compound 0.1 µM, first compound 0.000949 µM", "result": 91.7, "unit": "%"}, {"measurement": "viability, T/C", "setting": "second compound 0.1 µM, first compound 0.003 µM", "result": 87.9, "unit": "%"}, {"measurement": "viability, T/C", "setting": "second compound 0.1 µM, first compound 0.00949 µM", "result": 57.5, "unit": "%"}, {"measurement": "viability, T/C", "setting": "second compound 0.1 µM, first compound 0.03 µM", "result": 18.6, "unit": "%"}, {"measurement": "viability, T/C", "setting": "second compound 0.1 µM, first compound 0.0949 µM", "result": 0.42, "unit": "%"}, {"measurement": "viability, T/C", "setting": "second compound 0.1 µM, first compound 0.3 µM", "result": 0.49, "unit": "%"}, {"measurement": "viability, T/C", "setting": "second compound 0.316 µM, first compound 0.000949 µM", "result": 85.1, "unit": "%"}, {"measurement": "viability, T/C", "setting": "second compound 0.316 µM, first compound 0.003 µM", "result": 84.6, "unit": "%"}, {"measurement": "viability, T/C", "setting": "second compound 0.316 µM, first compound 0.00949 µM", "result": 55.1, "unit": "%"}, {"measurement": "viability, T/C", "setting": "second compound 0.316 µM, first compound 0.03 µM", "result": 18.2, "unit": "%"}, {"measurement": "viability, T/C", "setting": "second compound 0.316 µM, first compound 0.0949 µM", "result": 0.45, "unit": "%"}, {"measurement": "viability, T/C", "setting": "second compound 0.316 µM, first compound 0.3 µM", "result": 0.5, "unit": "%"}, {"measurement": "viability, T/C", "setting": "second compound 1 µM, first compound 0.000949 µM", "result": 80.9, "unit": "%"}, {"measurement": "viability, T/C", "setting": "second compound 1 µM, first compound 0.003 µM", "result": 78.7, "unit": "%"}, {"measurement": "viability, T/C", "setting": "second compound 1 µM, first compound 0.00949 µM", "result": 51.5, "unit": "%"}, {"measurement": "viability, T/C", "setting": "second compound 1 µM, first compound 0.03 µM", "result": 14.5, "unit": "%"}, {"measurement": "viability, T/C", "setting": "second compound 1 µM, first compound 0.0949 µM", "result": 0.38, "unit": "%"}, {"measurement": "viability, T/C", "setting": "second compound 1 µM, first compound 0.3 µM", "result": 0.35, "unit": "%"}, {"measurement": "viability, T/C", "setting": "second compound 3.16 µM, first compound 0.000949 µM", "result": 78.3, "unit": "%"}, {"measurement": "viability, T/C", "setting": "second compound 3.16 µM, first compound 0.003 µM", "result": 75.1, "unit": "%"}, {"measurement": "viability, T/C", "setting": "second compound 3.16 µM, first compound 0.00949 µM", "result": 58.9, "unit": "%"}, {"measurement": "viability, T/C", "setting": "second compound 3.16 µM, first compound 0.03 µM", "result": 17.6, "unit": "%"}, {"measurement": "viability, T/C", "setting": "second compound 3.16 µM, first compound 0.0949 µM", "result": 0.39, "unit": "%"}, {"measurement": "viability, T/C", "setting": "second compound 3.16 µM, first compound 0.3 µM", "result": 0.54, "unit": "%"}, {"measurement": "viability, T/C", "setting": "second compound 10 µM, first compound 0.000949 µM", "result": 68.8, "unit": "%"}, {"measurement": "viability, T/C", "setting": "second compound 10 µM, first compound 0.003 µM", "result": 68.9, "unit": "%"}, {"measurement": "viability, T/C", "setting": "second compound 10 µM, first compound 0.00949 µM", "result": 54.2, "unit": "%"}, {"measurement": "viability, T/C", "setting": "second compound 10 µM, first compound 0.03 µM", "result": 9.4, "unit": "%"}, {"measurement": "viability, T/C", "setting": "second compound 10 µM, first compound 0.0949 µM", "result": 0.34, "unit": "%"}, {"measurement": "viability, T/C", "setting": "second compound 10 µM, first compound 0.3 µM", "result": 0.52, "unit": "%"}]}
